Measured values as given in US20240299542A1, “NATURAL KILLER CELLS ENGINEERED TO REDUCE OR ELIMINATE CBL-B AND USES THEREOF” (City of Hope, priority 2021, published 2024).

Experiments:
Assay type in all cases: cell-based, human
[1] = tested on: Molm-13, MV4-11 or EOL-1 leukemia cell lines
Method: FIGS. 3A-3E depict the results of a study showing that downregulation of Cbl-b enhances the cytotoxicity of primary human NK cells. (FIGS. 3A and 3B) Primary human NK cells transduced with Cbl-b siRNA or Scr siRNA for 24 h were stimulated without (FIG. 3A) or with (FIG. 3B) a low concentration of IL-15 (2 ng/ml) for 16 h, then co-cultured with ^51Cr labeled Molm-13, MV4-11 or EOL-1 leukemia cell lines for 4 h, followed by quantification of specific tumor cell lysis. Each experiment was repeated with 6 different normal donors. (FIG. 3C) qRT-PCR was performed to quantify the granzyme B (GZMB) mRNA levels (n=8 donors) in siRNA- and Scr siRNA-transduced primary human NK cells incubated without or with IL-15 (10 ng/ml) for 16 h. (FIG. 3D) The concentration of the granzyme B protein in the supernatants of Cbl-b siRNA- and Scr siRNA-transduced primary human NK cells incubated without (688.1 pg/ml vs 525.4 pg/ml; P=0.0232) or with IL-15 (10 ng/ml) for 24 h (8789 pg/ml vs 3397 pg/ml; P=0.0232) was measured by ELISA (n=8 donors). (FIG. 3E) The level of granzyme B protein in Cbl-b siRNA- and Scr siRNA-transduced primary human NK cells incubated without or with IL-15 (10 ng/ml) for 24 h was measured by immunoblot analysis. The data are representative of three experiments. Scr-scrambled; *P<0.05, **P<0.01, ***P<0.001, ****P<0.0001 by One-way or Two-way ANOVA; ns, not significant. […]

granzyme B = test: Granzyme B protein in supernatants by ELISA
Method: FIGS. 3A-3E depict the results of a study showing that downregulation of Cbl-b enhances the cytotoxicity of primary human NK cells. (FIGS. 3A and 3B) Primary human NK cells transduced with Cbl-b siRNA or Scr siRNA for 24 h were stimulated without (FIG. 3A) or with (FIG. 3B) a low concentration of IL-15 (2 ng/ml) for 16 h, then co-cultured with ^51Cr labeled Molm-13, MV4-11 or EOL-1 leukemia cell lines for 4 h, followed by quantification of specific tumor cell lysis. Each experiment was repeated with 6 different normal donors. (FIG. 3C) qRT-PCR was performed to quantify the granzyme B (GZMB) mRNA levels (n=8 donors) in siRNA- and Scr siRNA-transduced primary human NK cells incubated without or with IL-15 (10 ng/ml) for 16 h. (FIG. 3D) The concentration of the granzyme B protein in the supernatants of Cbl-b siRNA- and Scr siRNA-transduced primary human NK cells incubated without (688.1 pg/ml vs 525.4 pg/ml; P=0.0232) or with IL-15 (10 ng/ml) for 24 h (8789 pg/ml vs 3397 pg/ml; P=0.0232) was measured by ELISA (n=8 donors). (FIG. 3E) The level of granzyme B protein in Cbl-b siRNA- and Scr siRNA-transduced primary human NK cells incubated without or with IL-15 (10 ng/ml) for 24 h was measured by immunoblot analysis. The data are representative of three experiments. Scr-scrambled; *P<0.05, **P<0.01, ***P<0.001, ****P<0.0001 by One-way or Two-way ANOVA; ns, not significant. Data presented as mean±SEM.
ELISA. Primary NK cells were plated in an equivalent number of 100,000 cells/well in a 96-well plate in RPMI and supplemented with 10% FBS. Cells were treated with recombinant human IL-15 (10 ng/ml) for 24 h, and cell-free culture supernatant was collected and frozen at −80° C. for later use. IFN-γ concentration was measured by ELISA using anti-IFN-γ antibody from Thermo Fisher Scientific. Granzyme B concentration was measured by ELISA kit purchased from R&D.
(§1) Both groups were next incubated without or with IL-15 and co-cultured with ^51Cr labeled MV4-11, Molm-13, or EOL-1 leukemia cell lines, followed by assessment of specific lysis measured after 4 h of co-culture.

perform = test: Perforin protein by immunoblot in siRNA-transduced NK cells; details: with IL-15 (10 ng/ml) 24 h, vs Scr siRNA
Method: FIG. 8A Primary human NK cells were transduced with Cbl-b siRNA or a scrambled siRNA (Scr siRNA) for 48 h, directly followed by immunoblot analysis to determine the efficiency of siRNA (n=3 donors). […] FIG. 8B qRT-PCR was performed to quantify the level of perform mRNA (n=7 donors) in Cbl-b siRNA- and Scr siRNA-transduced primary human cells incubated without or with IL-15 (10 ng/ml) for 16 h. FIG. 8C The perform protein level in Cbl-b siRNA- and Scr siRNA-transduced primary human NK cells incubated 24 without or with IL-15 (10 ng/ml) for 24 h was measured by immunoblot analysis. The data are representative of four experiments and are summarized in the right panel. Scr, scrambled; *P<0.05, **P<0.01; ns, not significant. Data are presented as mean±SEM.
Immunoblotting. Cells were harvested and suspended in RIPA lysis buffer (Thermo Fisher Scientific) on ice for 20 minutes. Equal amount of protein was resolved by 5-15% Criterion TGX gel (Bio-Rad) and then transferred onto a Nitrocellulose (NC) or PVDF membrane (Thermo Fisher Scientific). […] Densitometric analysis was performed to quantify intensity of gel bands with Image J (National Institutes of Health).
as §1

Substance: Cbl-b siRNA: Cbl-b-specific Accell siRNA (Dharmacon), SEQ ID NO:1, CCUUCAUGUUCAGAUGGUU (Accell modified siRNA, pattern not given here)
- cytotoxicity (specific lysis) without IL-15 [1]: significant increase in cytotoxicity against three of the four AML cell lines
- concentration of granzyme B protein in supernatants (granzyme B; with IL-15 (10 ng/ml) 24 h, n=8 donors): 8789 pg/mL
- concentration of granzyme B protein in supernatants (granzyme B; without IL-15, n=8 donors): 688.1 pg/mL
- total protein level of perform (perform): significantly increased
